Source: paper PMC7155171, “Probing the Open Global Health Chemical Diversity Library for Multistage-Active Starting Points for Next-Generation Antimalarials” (ACS Infectious Diseases, 2020)
Like-named read-outs stand apart in the source and are kept apart here.

What was measured:
[1] = tested on: HepG2-A16-CD81 hepatocytes; assay: HepG2 cytotoxicity screening (CellTiter-Glo); settings: HepG2-A16-CD81, read-out: HepG2 tox IC50
[2] = target: recombinant firefly luciferase (Photinus pyralis, UniProt P08659); assay: biochemical; settings: read-out: rLuc IC50
[3] = tested on: P. berghei liver stage (PbLuc); assay: P. berghei luciferase liver stage (PbLuc) assay in HepG2-A16-CD81 hepatocytes; format: cell-based, Plasmodium berghei; settings: 48 h liver stage, HepG2-A16-CD81; for IC50: Plasmodium berghei, HepG2-A16-CD81, 48 h, read-out: Pbluc (EEF) IC50
[4] = tested on: P. vivax patient isolates, exoerythrocytic forms (schizonts and hypnozoites); assay: P. vivax liver stage assay in HC04 cells (immunofluorescence); settings: HC04 cells treated 24 h before sporozoites, nanomolar concentrations, counted day 7
[5] = tested on: P. falciparum Dd2 (PfLuc) line expressing firefly luciferase, asexual blood stage; assay: microbe, parasite or virus in culture; format: cell-based, Plasmodium falciparum; settings: for IC50 / Emax: Plasmodium falciparum
P. falciparum Dd2 = assay: SYBR green I asexual blood stage proliferation assay (96 h); format: cell-based, Plasmodium falciparum; settings: Plasmodium falciparum
[6] = tested on: P. berghei-GFP (PbGFP) liver stage; assay: P. berghei-GFP liver stage high content imaging in Huh7.5.1 hepatocytes; format: cell-based; settings: Plasmodium berghei, Huh-7.5.1, 48 h, read-out: liver stage high content imaging assay IC50
Experimental: For the fluorescent liver stage validation, roughly 2500 P. berghei-GFP (PbGFP) sporozoites[76] were dissected from mosquitoes provided by the NYU Insectary Core Facility and seeded onto a lawn of 5000 Huh7.5.1 hepatocytes in 384-well plates. These assay plates were pretreated with DDD01061024 in 8-point dose response (10–4.57 × 10^–3 μM), with atovaquone (0.5–3.91 × 10^–3 μM) and DMSO (0.5%) as positive and negative controls, respectively. Unlike our standard HepG2 cell line, these Huh7.5.1 cells lack GFP expression, making it preferable for these experiments. After a 48 h incubation in the presence of our test compounds, the presence of GFP positive infected cells were imaged and counted using the Operetta High-content Imaging System (PerkinElmer).
(§1) Figure S3. DDD01061024 is a cytochrome bc1 inhibitor.
The dual stage inhibitor, DDD01061024, is shown occupying the Q0 site (residues outlined in orange) of a Pf Cyt Bc1 homology model (from PDB: 1BE3) (a). […] Dose dependent inhibition was determined using a metabolic endpoint (LDH) before normalizing to controls (n=2). Measuring the percentage of PbGFP infected hepatocytes using a high content imaging system validates the liver-stage potency of DDD01061024 in a fluorescence-based model (d). Infected hepatocytes were counted using luminescence-independent high content imaging in treated wells and normalized to controls over two replicates. […]

[7] = tested on: P. falciparum asexual blood stage (wild-type and DDD01061024-resistant Dd2-B2 clones); assay: Lactate dehydrogenase (LDH) asexual blood stage assay; format: cell-based, Plasmodium falciparum; settings: for IC50: Plasmodium falciparum
Source text: Mutations within this site, and indeed at our V259L residue, were previously reported using other known cytochrome b inhibitors including ELQ400[49] and RYL-552.[50]
as §1
The dual stage inhibitor, DDD01061024, is shown occupying the Q0 site (residues outlined in orange) of a Pf Cyt Bc1 homology model (from PDB: 1BE3) (a). A local V259L substitution (red) in mutant clones may destabilize the interactions within this pocket, helping resistant clones tolerate higher doses of the inhibitor (b). DDD01061024-resistannt mutants show cross-resistance to atovaquone (c), another multistage active antimalarial which targets the Q0 binding site. Dose dependent inhibition was determined using a metabolic endpoint (LDH) before normalizing to controls (n=2). Measuring the percentage of PbGFP infected hepatocytes using a high content imaging system validates the liver-stage potency of DDD01061024 in a fluorescence-based model (d). Infected hepatocytes were counted using luminescence-independent high content imaging in treated wells and normalized to controls over two replicates.
(1 picture or pasted object on this page, not shown here)

Sequence of recombinant firefly luciferase (P08659 whole entry): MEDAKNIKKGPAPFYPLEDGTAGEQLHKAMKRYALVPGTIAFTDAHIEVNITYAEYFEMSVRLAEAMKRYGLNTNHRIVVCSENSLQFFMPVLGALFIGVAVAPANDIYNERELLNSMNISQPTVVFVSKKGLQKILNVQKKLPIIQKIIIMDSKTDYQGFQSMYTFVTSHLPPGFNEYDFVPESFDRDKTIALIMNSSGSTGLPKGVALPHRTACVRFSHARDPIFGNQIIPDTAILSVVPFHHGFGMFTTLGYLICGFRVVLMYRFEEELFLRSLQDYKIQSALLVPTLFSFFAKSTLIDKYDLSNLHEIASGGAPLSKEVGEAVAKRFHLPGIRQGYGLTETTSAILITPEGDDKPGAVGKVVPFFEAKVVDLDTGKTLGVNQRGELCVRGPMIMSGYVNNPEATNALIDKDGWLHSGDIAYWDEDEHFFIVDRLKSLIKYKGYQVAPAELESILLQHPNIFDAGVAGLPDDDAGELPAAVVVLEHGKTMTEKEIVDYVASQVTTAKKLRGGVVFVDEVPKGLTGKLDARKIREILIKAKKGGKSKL

## Cc1cc(NC(=O)C(C)C)n(-c2nc(C)c(C)c(=O)[nH]2)n1 [DDD01027481]
[1]
  IC50: > 25000 nM
[2]
  IC50: > 50000 nM
[3]
  IC50: 138 nM
[4]
  P. vivax hypnozoites or schizonts after treatment: no detectable hypnozoites or schizonts

## CCc1c(C)nc(-n2nc(C3CC3)cc2NC(C)=O)[nH]c1=O [DDD01027733]
[1]
  IC50: > 25000 nM
[2]
  IC50: > 50000 nM
[3]
  IC50: 96 nM
[4]
  P. vivax hypnozoites or schizonts after treatment: no detectable hypnozoites or schizonts

## Cc1ccc(-c2ccc(C3CNCCO3)nc2)cc1 (stereo not shown) [DDD01061024]
[1]
  IC50: > 50000 nM
[2]
  IC50: 3.2 nM
[5]; DD2, read-out: CDD P. falciparum Luciferase ABS 11-pt Reconfirmation Dose Response (48hr): IC50 (μM), 11-pt dose response, 48hr
  IC50: 0.533 µM
[5]; DD2, 8-pt dose response, 96hr, read-out: CDD P. falciparum Luciferase ABS 8-pt Reconfirmation Dose Response (96hr): IC50
  IC50: 0.2 µM
[5]; DD2, 11-pt dose response, 48hr, read-out: CDD P. falciparum Luciferase ABS 11-pt Reconfirmation Dose Response (48hr): Maximum inhibition (%)
  Emax: 99.6%
[5]; DD2, 11-pt dose response, 96hr, read-out: CDD P. falciparum Luciferase ABS 11-pt Reconfirmation Dose Response (96hr): IC50
  IC50: 0.574 µM
[5]; DD2, 11-pt dose response, 96hr, read-out: CDD P. falciparum Luciferase ABS 11-pt Reconfirmation Dose Response (96hr): Maximum inhibition (%)
  Emax: 99.5%
[5]; asexual blood stage, assay format not given
  ABS IC50: submicromolar
[3]
  Pbluc (EEF) IC50: submicromolar
  IC50: < 0.141 nM
P. falciparum Dd2; DD2, Sybr Green I, 11-pt dose response, 96hr, read-out: CDD P. falciparum Sybr Green I ABS 11-pt Reconfirmation Dose Response (96hr): Maximum inhibition (%)
  Emax: 98.9%
P. falciparum Dd2; 96 h, Dd2, read-out: 96 h SYBR green ABS IC50
  IC50: 344 nM
[6]
  IC50: 375 nM
[7]; DD2, read-out: LDH ABS assay IC50
  IC50: 521 nM

## O=C1C(O)=C([C@H]2CC[C@H](c3ccc(Cl)cc3)CC2)C(=O)c2ccccc21 [atovaquone]
[7]
  fold increase of IC50, DDD01061024 mutants vs wild-type: 11 fold
[7]; DD2, read-out: IC50 against wild-type parasites
  IC50: 0.377 nM
[7]; DD2, read-out: IC50 in DDD01061024 mutants
  IC50: 4.19 nM
